Measured values: US7521528B2, “Conformationally constrained parathyroid hormone (PTH) analogs with lactam bridges” (The General Hospital Corporation, priority 2003, dated 2009)
Non-standard residues stand in square brackets, D forms with d. Residues, ends and D or L forms follow the SMILES beside them. hArg = N=C(N)NCCCC[C@H](N)C(=O)O; Aib = CC(C)(N)C(=O)O

Target: T1, P1R-DelNt (Homo sapiens, UniProt Q03431)
T1 construct: expressed in transfected cells
T1 sequence (Q03431 with tags, fused parts or gaps limits assumed): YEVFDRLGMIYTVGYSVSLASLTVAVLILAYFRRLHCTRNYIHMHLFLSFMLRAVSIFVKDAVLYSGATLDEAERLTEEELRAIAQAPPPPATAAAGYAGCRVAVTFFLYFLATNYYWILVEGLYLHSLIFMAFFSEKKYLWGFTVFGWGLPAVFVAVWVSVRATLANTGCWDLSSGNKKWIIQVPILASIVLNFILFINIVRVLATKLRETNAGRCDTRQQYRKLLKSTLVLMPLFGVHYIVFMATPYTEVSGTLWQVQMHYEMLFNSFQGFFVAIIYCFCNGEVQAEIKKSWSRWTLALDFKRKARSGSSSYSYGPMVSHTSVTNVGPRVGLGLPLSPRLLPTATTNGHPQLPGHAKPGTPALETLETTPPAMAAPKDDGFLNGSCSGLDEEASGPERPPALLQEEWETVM
Test: cAMP stimulation in LdelNt-2 cells
Format: cell-based
Conditions: for EC50: cAMP accumulation; for Emax: percent of maximum response of PTH(1-14)
Description: cAMP Stimulation. Stimulation of cells with peptide analogs was performed in 24-well plates. Cells were rinsed with 0.5 mL of binding buffer (50 mM Tris-HCl, 100 mM NaCl, 5 mM KCl, 2 mM CaCl2, 5% heat-inactivated horse serum, 0.5% fetal bovine serum, adjusted to pH 7.5 with HCl) and treated with 200 μL of cAMP assay buffer (Delbecco's modified Eagle's medium containing 2 mM 3-isobutyl-1-methylxanthine, 1 mg/mL bovine serum albumin, 35 mM Hepes-NaOH, pH 7.4) and 100 μL of binding buffer containing varying amounts of peptide analog (final volume=300 μL). The medium was removed after incubation for 30 to 60 minutes at room temperature, and the cells were frozen on dry ice, lysed with 0.5 mL 50 mM HCl, and refrozen ([…]). The cAMP content of the diluted lysate was determined by radioimmunoassay. The EC50 response values were calculated using nonlinear regression (see below).
Data Calculation. Calculations were performed using Microsoft® Excel. Nonlinear regression analyses of binding and cAMP dose-response data were performed using the four-parameter equation: yp=Min+[(Max−Min)/(1+(IC50/x)^slope)]. The Excel Solver function was utilized for parameter optimization, as described previously (Carter, P. H., et al., Endocrinology 140: 4972-4981 (1999); Bowen, W. P., and Jerman, J. C., Trends in Pharmacol. Sci. 16: 413-417 (1995)). Differences between paired data sets were statistically evaluated using a one-tailed Student's t-test, assuming unequal variances for the two sets.
The two-domain hypothesis of the PTH-P1R interaction mechanism predicts that the effects of the substitutions at positions 6 and 10 observed with the above PTH(1-11) analogs involve interactions (direct or indirect) that occur within the juxtamembrane region of the receptor. To test this hypothesis, P1R-DelNt was utilized. P1R-DeNt is a P1R construct that is deleted for most of the N domain yet which retains nearly full capacity to be expressed on the cell surface and to stimulate cAMP formation in response to N-terminal PTH analogs, and an LLC-PK1-derived cell line was herein established, LdelNt-2, which stably expresses P1R-DelNt.

SMILES	fold increase in cAMP formation/accumulation [fold]	EC50 [nM]	potency relative to [Aib^1,3, Ala^6]PTH(1-14)	Emax [%]	potency weaker than parent [Aib]PTH(1-14) [fold]
CC[C@H](C)[C@H](NC(=O)[C@H](CCC(=O)O)NC(=O)C(C)(C)NC(=O)[C@@H](NC(=O)C(C)(C)N)C(C)C)C(=O)N[C@@H](CCC(N)=O)C(=O)N[C@@H](CC(C)C)C(=O)N[C@@H](CCSC)C(=O)N[C@@H](Cc1c[nH]cn1)C(=O)N[C@@H](CCC(N)=O)C(=O)N[C@@H](CCCCNC(=N)N)C(=O)N[C@@H](C)C(=O)N[C@@H](CCCCN)C(=O)N[C@@H](Cc1c[nH]c2ccccc12)C(N)=O [[Aib]PTH(1-14), AibValAibGluIleGlnLeuMetHisGlnHarAlaLysTrp-amide] (H-[Aib]V[Aib]EIQLMHQ[hArg]AKW-NH2)	50	6.6 ± 1.1	–	–	–
CC[C@H](C)[C@H](NC(=O)[C@H](CCC(=O)O)NC(=O)C(C)(C)NC(=O)[C@@H](NC(=O)C(C)(C)N)C(C)C)C(=O)N[C@@H](C)C(=O)N[C@@H](CC(C)C)C(=O)N[C@@H](CCSC)C(=O)N[C@@H](Cc1c[nH]cn1)C(=O)N[C@@H](C)C(=O)N[C@@H](CCCCNC(=N)N)C(=O)N[C@@H](C)C(=O)N[C@@H](CCCCN)C(=O)N[C@@H](Cc1c[nH]c2ccccc12)C(N)=O [[Aib^1,3, Ala^6,10]PTH(1-14)] (H-[Aib]V[Aib]EIALMHA[hArg]AKW-NH2)	–	24 ± 7	six-fold higher	100 ± 3	–
CC[C@H](C)[C@H](NC(=O)[C@H](CCC(=O)O)NC(=O)C(C)(C)NC(=O)[C@@H](NC(=O)C(C)(C)N)C(C)C)C(=O)N[C@@H](C)C(=O)N[C@@H](CC(C)C)C(=O)N[C@@H](CCSC)C(=O)N[C@@H](Cc1c[nH]cn1)C(=O)N[C@@H](CCC(N)=O)C(=O)N[C@@H](CCCCNC(=N)N)C(=O)N[C@@H](C)C(=O)N[C@@H](CCCCN)C(=O)N[C@@H](Cc1c[nH]c2ccccc12)C(N)=O [[Aib^1,3, Ala^6]PTH(1-14)] (H-[Aib]V[Aib]EIALMHQ[hArg]AKW-NH2)	–	–	–	101 ± 4	22
CC[C@H](C)[C@H](NC(=O)[C@H](CCC(=O)O)NC(=O)C(C)(C)NC(=O)[C@@H](NC(=O)C(C)(C)N)C(C)C)C(=O)N[C@@H](CCC(N)=O)C(=O)N[C@@H](CC(C)C)C(=O)N[C@@H](CCSC)C(=O)N[C@@H](Cc1c[nH]cn1)C(=O)N[C@@H](C)C(=O)N[C@@H](CCCCNC(=N)N)C(=O)N[C@@H](C)C(=O)N[C@@H](CCCCN)C(=O)N[C@@H](Cc1c[nH]c2ccccc12)C(N)=O [[Aib^1,3, Ala^10]PTH(1-14)] (H-[Aib]V[Aib]EIQLMHA[hArg]AKW-NH2)	–	81 ± 65	–	104 ± 7	12
